Values quoted from earlier work as cited in US20170009119A1, “DIELECTRIC FLUID AND COOLANT MADE WITH BIOBASED BASE OIL” (Novvi LLC, priority 2014, published 2017).

System: aquatic life
Details: European Directive 67/548/EEC

Structure (SMILES): c1ccc2c(c1)CCCC2 [tetralin, 1,2,3,4-tetrahydronaphthalene]
- toxicity to aquatic life (code R51/53): toxic to aquatic life with long lasting effects
